Where two headings read alike, the source gives them in different places.
[1] = compared with crystals of fluoxetine HCl

Structure (SMILES)	dissolution rate (Example 1 cocrystal)	dissolution rate [1]
CNCCC(Oc1ccc(C(F)(F)F)cc1)c1ccccc1.Cl.O=C(O)c1ccccc1 (stereo not drawn) [fluoxetine HCl:benzoic acid, fluoxetine HCl:benzoic acid (1:1)]	relatively slow	lower dissolution rate
CNCCC(Oc1ccc(C(F)(F)F)cc1)c1ccccc1.Cl.O=C(O)CCC(=O)O (stereo not drawn) [fluoxetine HCl:succinic acid, fluoxetine HCl:succinic acid (2:1)]	–	faster dissolution rate
